For the experiment, the system named is human T-bet. The experiment is described as follows: HEKT-bet-luc assay (normalized HEKT-bet IC50). Type of experiment: cell-based. As to conditions: Homo sapiens, HEK293, 24 h, Table 4, engineered HEK cells, compound 24 hours, normalized to reference ER-819544. As to the method: HEKT-bet-luc assay: This assay measures a T-bet dependent reporter (luciferase) activity in engineered HEK cells that express a human T-bet and a T-box responsive element driving luciferase reporter. HEKT-bet cells were plated at 2×10^4/well in 96-well plate and compound was added into cell culture for 24 hours. Luciferase activity was measured by adding 50 μl of Steady-Glo reagent (Promega) and samples were read in Victor V reader (PerkinElmer). The activity of compound was determined by comparing compound treated samples to non-compound treated vehicle controls. The IC50 values were calculated utilizing a maximum value corresponding to the amount of luciferase in the absence of a test compound and a minimum value corresponding to a test compound value obtained at maximum inhibition.
Determination of Normalized HEKT-bet IC50 values: Compounds were assayed in microtiter plates. Each plate included a reference compound which was ER-819544. The un-normalized IC50 value for a particular compound was divided by the IC50 value determined for the reference compound in the same microtiter plate to provide a relative potency value. The relative potency value was then multiplied by the established potency of the reference compound to provide the normalized HEKT-bet IC50 value. […] The IC50 values provided herein were obtained using this normalization method.

One may read the pIC50 as −log10 of the IC50, conventionally taken in molar units. Low readings indicate a large IC50, high ones a small IC50.

pIC50: −log10 of the molar value.

`CCN1C(=O)N2Cc3cc(OC)cc(OC)c3[C@@H](C)C=C2C12CCN(Cc1cn(C(C)=O)c3ccccc13)CC2` [ER-819808-01] showed a negative logarithm of the IC50 (pIC50) of 6.85.
For `CCN1C(=O)N2Cc3cc(OC)cc(OC)c3[C@@H](C)C=C2C12CCN(Cc1nc(C)oc1C)CC2` [ER-811283-01] the value was 7.28.
The molecule `CCN1C(=O)N2Cc3cc(OC)cc(OC)c3[C@@H](C)C=C2C12CCN(Cc1cccc3ncccc13)CC2` [ER-819954-01] gave a pIC50 of 7.33.
Take `CCN1C(=O)N2Cc3cc(OC)cc(OC)c3[C@@H](C)C=C2C12CCN(Cc1ccc3cc[nH]c3c1)CC2` [ER-819844-01]: the pIC50 is 7.17.
As for `CCN1C(=O)N2Cc3cc(OC)cc(OC)c3[C@@H](C)C=C2C12CCN(Cc1cccc3c1OCC3)CC2` [ER-811306-01], the pIC50 is 7.00.
For `CCN1C(=O)N2Cc3cc(OC)cc(OC)c3[C@H](C)C=C2C12CCN(Cc1nc3ccccc3n1C)CC2` [ER-819927] the value was 6.68; for `CCN1C(=O)N2Cc3cc(OC)cc(OC)c3[C@@H](C)C=C2C12CCN(Cc1cn(C)c3ccccc13)CC2` [ER-819804-01], 7.40; for `CCN1C(=O)N2Cc3cc(OC)cc(OC)c3[C@@H](C)C=C2C12CCN(Cc1sncc1C)CC2` [ER-819842-01], 7.09.
In the case of `CCN1C(=O)N2Cc3cc(OC)cc(OC)c3[C@@H](C)C=C2C12CCN(Cc1ccc3nccn3c1)CC2` [ER-811284-01], the pIC50 is 7.06.
With `CCN1C(=O)N2Cc3cc(OC)cc(OC)c3[C@@H](C)C=C2C12CCN(Cc1cccc(-n3cncn3)c1)CC2` [ER-811302-01] the figure was 6.60.
In turn, `CCN1C(=O)N2Cc3cc(OC)cc(OC)c3[C@@H](C)C=C2C12CCN(Cc1nn(C)c3ccccc13)CC2` [ER-819800-01] had a pIC50 of 7.64.
For the molecule `CCN1C(=O)N2Cc3cc(OC)cc(OC)c3[C@@H](C)C=C2C12CCN(Cc1c3ccccc3nn1C)CC2` [ER-811312-01], the pIC50 was 7.11.
In turn, `CCN1C(=O)N2Cc3cc(OC)cc(OC)c3[C@@H](C)C=C2C12CCN(Cc1cccn1-c1cnccn1)CC2` [ER-820020-02] had a pIC50 of 6.74.
With `CCN1C(=O)N2Cc3cc(OC)cc(OC)c3[C@@H](C)C=C2C12CCN(Cc1cnc3ccccc3n1)CC2` [ER-811297-01] the figure was 7.13; with `CCN1C(=O)N2Cc3cc(OC)cc(OC)c3[C@@H](C)C=C2C12CCN(Cc1cccc3nccnc13)CC2` [ER-819953-01], 7.59; with `CCN1C(=O)N2Cc3cc(OC)cc(OC)c3[C@@H](C)C=C2C12CCN(Cc1cccn1C(C)(C)C)CC2` [ER-811359-01], 6.57.
Molecule `CCN1C(=O)N2Cc3cc(OC)cc(OC)c3[C@H](C)C=C2C12CCN(Cc1cc(C)ccc1F)CC2` [ER-819947] gave a pIC50 of 5.59.
Take `CCN1C(=O)N2Cc3cc(OC)cc(OC)c3[C@@H](C)C=C2C12CCN(Cc1nc3ccccc3n1C)CC2` [ER-819926]: the pIC50 was 7.40.
The molecule `CCN1C(=O)N2Cc3cc(OC)cc(OC)c3[C@@H](C)C=C2C12CCN(Cc1nccc(-c3ccccc3)n1)CC2` [ER-819985-01] gave a pIC50 of 6.89.
In turn, `CCN1C(=O)N2Cc3cc(OC)cc(OC)c3[C@@H](C)C=C2C12CCN(Cc1c(C)nc3ccccn13)CC2` [ER-811305-01] had a pIC50 of 7.51.
In turn, `CCN1C(=O)N2Cc3cc(OC)cc(OC)c3[C@@H](C)C=C2C12CCN(Cc1c[nH]c3ccccc13)CC2` [ER-819783-01] showed a pIC50 of 7.46.
`CCN1C(=O)N2Cc3cc(OC)cc(OC)c3[C@@H](C)C=C2C12CCN(Cc1cccn1C)CC2` [ER-819924] gave a pIC50 of 7.30.
In turn, `CCN1C(=O)N2Cc3cc(OC)cc(OC)c3[C@@H](C)C=C2C12CCN(Cc1cn3ccsc3n1)CC2` [ER-811309-01] had a negative-log IC50 (pIC50) of 6.89.
With `CCN1C(=O)N2Cc3cc(OC)cc(OC)c3[C@@H](C)C=C2C12CCN(Cc1ccc3ccccc3n1)CC2` [ER-811323-01], the pIC50 is 7.38.
As to `CCN1C(=O)N2Cc3cc(OC)cc(OC)c3[C@@H](C)C=C2C12CCN(Cc1cn3ccccc3n1)CC2` [ER-811292-01], the pIC50 is 6.89.
In turn, `CCN1C(=O)N2Cc3cc(OC)cc(OC)c3[C@@H](C)C=C2C12CCN(Cc1nccn1C)CC2` [ER-811278-01] had a pIC50 of 7.43.
`CCN1C(=O)N2Cc3cc(O)cc(O)c3[C@@H](C)C=C2C12CCN(Cc1cc(C)cc(C)c1)CC2` [ER-819888-00]: the pIC50 is 6.52.
The molecule `CCN1C(=O)N2Cc3cc(OC)cc(OC)c3[C@@H](C)C=C2C12CCN(Cc1cc(C)sc1C)CC2` [ER-811365-01] had a pIC50 of 7.08.
For `CCN1C(=O)N2Cc3cc(OC)cc(OC)c3[C@@H](C)C=C2C12CCN(Cc1ccc3nn(C)nc3c1)CC2` [ER-819847-01] the value was 7.46.

The record behind these values is patent US20110065916A1, “METHOD OF MAKING IMIDAZOAZEPINONE COMPOUNDS” (priority 2007, published 2011).
